From PubChem BioAssay (NCI)
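These data come from cells grown in 96-well plates and exposed to compound for 48 hours at five concentrations. GI50: concentration for 50% inhibition of growth. TGI: total growth inhibition.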

Tests used:
Experiment in all cases: NCI tumour cell line growth inhibition, 48 h
786-0 renal = tested on: 786-0 renal
CAKI-1 renal = tested on: CAKI-1 renal
DU-145 prostate = tested on: DU-145 prostate
HOP-62 NSCLC = tested on: HOP-62 NSCLC
M14 melanoma = tested on: M14 melanoma
MDA-MB-435 = tested on: MDA-MB-435
NCI-H522 lung = tested on: NCI-H522 lung
OVCAR-3 ovarian = tested on: OVCAR-3 ovarian
SK-MEL-5 melanoma = tested on: SK-MEL-5 melanoma
TK-10 renal = tested on: TK-10 renal

In the case of `C[C@@H]1CC[C@@H]2[C@@H]1[C@H](OC(=O)/C=C/c1ccccc1)[C@]1(C3CCCCC3)C[C@@H](OC(=O)CO)[C@@]2(C)O1`, the GI50 (786-0 renal) is reported as 1.17 µM, the TGI (786-0 renal) is reported as 3.07 µM and the GI50 (CAKI-1 renal) is reported as 0.0347 µM. It also gave a TGI (CAKI-1 renal) of 11 µM, a GI50 (DU-145 prostate) of 3.99 µM and a TGI (DU-145 prostate) of 14.7 µM. The GI50 (HOP-62 NSCLC) was 3.3 µM, the TGI (HOP-62 NSCLC) was 14 µM and the GI50 (M14 melanoma) was 3.57 µM. For the same compound, the TGI (M14 melanoma) was 15.2 µM, the GI50 (MDA-MB-435) was 2.99 µM and the TGI (MDA-MB-435) was 11 µM. For the same compound, the GI50 (NCI-H522 lung) was 2.4 µM, the TGI (NCI-H522 lung) was 6.75 µM and the GI50 (OVCAR-3 ovarian) was 2.53 µM. It also gave a TGI (OVCAR-3 ovarian) of 7.3 µM, a GI50 (SK-MEL-5 melanoma) of 2.36 µM and a TGI (SK-MEL-5 melanoma) of 6.11 µM. It also gave a GI50 (TK-10 renal) of 9.17 µM and a TGI (TK-10 renal) of 22.5 µM.
`CCOC(=O)C(Cc1ccc(CCCC(=O)NCCC(=O)Nc2ccc3nc(C)sc3c2)cc1)C(=O)OCC` was tested, and the GI50 (786-0 renal) was greater than 77.9 µM, the TGI (786-0 renal) was greater than 100 µM and the GI50 (CAKI-1 renal) was 49.1 µM. For the same compound, the TGI (CAKI-1 renal) was greater than 100 µM, the GI50 (DU-145 prostate) was 51.1 µM and the TGI (DU-145 prostate) was greater than 100 µM. It also gave a GI50 (HOP-62 NSCLC) greater than 83.3 µM, a TGI (HOP-62 NSCLC) greater than 100 µM and a GI50 (M14 melanoma) of 29.3 µM. For the same compound, the TGI (M14 melanoma) was greater than 93.8 µM, the GI50 (MDA-MB-435) was 26 µM and the TGI (MDA-MB-435) was 76.5 µM. For the same compound, the GI50 (NCI-H522 lung) was 33.1 µM, the TGI (NCI-H522 lung) was greater than 100 µM and the GI50 (OVCAR-3 ovarian) was 54.9 µM. It also gave a TGI (OVCAR-3 ovarian) greater than 100 µM, a GI50 (SK-MEL-5 melanoma) of 15.4 µM and a TGI (SK-MEL-5 melanoma) of 29.2 µM. For the same compound, the GI50 (TK-10 renal) was greater than 100 µM and the TGI (TK-10 renal) was greater than 100 µM.
For `Cn1cc(-c2csc(-c3c[nH]c4ccc(F)cc34)n2)c2cnccc21`, the GI50 (786-0 renal) was 1.85 µM, the TGI (786-0 renal) was 3.47 µM and the GI50 (CAKI-1 renal) was 1.65 µM. It also gave a TGI (CAKI-1 renal) of 3.05 µM, a GI50 (DU-145 prostate) of 1.8 µM and a TGI (DU-145 prostate) of 3.28 µM. It also gave a GI50 (HOP-62 NSCLC) of 1.54 µM, a TGI (HOP-62 NSCLC) of 2.98 µM and a GI50 (M14 melanoma) of 1.74 µM. It also gave a TGI (M14 melanoma) of 3.27 µM, a GI50 (MDA-MB-435) of 1.85 µM and a TGI (MDA-MB-435) of 3.31 µM. For the same compound, the GI50 (NCI-H522 lung) was 1.79 µM, the TGI (NCI-H522 lung) was 3.29 µM and the GI50 (OVCAR-3 ovarian) was 1.83 µM. For the same compound, the TGI (OVCAR-3 ovarian) was 3.32 µM, the GI50 (SK-MEL-5 melanoma) was 1.65 µM and the TGI (SK-MEL-5 melanoma) was 3.05 µM. It also gave a GI50 (TK-10 renal) of 2.22 µM and a TGI (TK-10 renal) of 3.75 µM.
For `COc1cc(NS(C)(=O)=O)ccc1Nc1c2ccccc2nc2c1[nH]c1ccc(NC3OC(CO)C(O)C(O)C3O)cc12` (centres undefined), the TGI (786-0 renal) was 0.339 µM, the TGI (CAKI-1 renal) was 0.091 µM and the TGI (DU-145 prostate) was 0.245 µM. For the same compound, the TGI (HOP-62 NSCLC) was 0.208 µM, the TGI (M14 melanoma) was 0.971 µM and the TGI (MDA-MB-435) was 7.06 µM. It also gave a TGI (NCI-H522 lung) of 0.387 µM, a TGI (OVCAR-3 ovarian) of 2 µM and a TGI (SK-MEL-5 melanoma) of 1.31 µM. It also gave a TGI (TK-10 renal) of 0.7 µM.
`O=C(CSc1nc2ccccc2nc1-c1ccccc1)Nc1ccc(F)cc1` was tested, and the GI50 (786-0 renal) was 49.2 µM, the TGI (786-0 renal) was greater than 100 µM and the GI50 (CAKI-1 renal) was greater than 100 µM. For the same compound, the TGI (CAKI-1 renal) was greater than 100 µM, the GI50 (DU-145 prostate) was 51 µM and the TGI (DU-145 prostate) was greater than 100 µM. For the same compound, the GI50 (HOP-62 NSCLC) was 32.6 µM, the TGI (HOP-62 NSCLC) was greater than 100 µM and the GI50 (M14 melanoma) was greater than 100 µM. It also gave a TGI (M14 melanoma) greater than 100 µM, a GI50 (MDA-MB-435) greater than 100 µM and a TGI (MDA-MB-435) greater than 100 µM. For the same compound, the GI50 (NCI-H522 lung) was 24.2 µM, the TGI (NCI-H522 lung) was greater than 100 µM and the GI50 (OVCAR-3 ovarian) was 28 µM. The TGI (OVCAR-3 ovarian) was greater than 100 µM, the GI50 (SK-MEL-5 melanoma) was 16.5 µM and the TGI (SK-MEL-5 melanoma) was 54.8 µM. The GI50 (TK-10 renal) was 41.1 µM and the TGI (TK-10 renal) was greater than 100 µM.
`O=C(O)Cc1cc(Cl)ccc1O` was tested, and the TGI (786-0 renal) was greater than 100 µM, the TGI (CAKI-1 renal) was greater than 100 µM and the TGI (DU-145 prostate) was greater than 100 µM. The TGI (HOP-62 NSCLC) was greater than 100 µM, the TGI (M14 melanoma) was greater than 100 µM and the TGI (MDA-MB-435) was greater than 100 µM. The TGI (NCI-H522 lung) was greater than 100 µM, the TGI (OVCAR-3 ovarian) was greater than 100 µM and the TGI (SK-MEL-5 melanoma) was greater than 100 µM. For the same compound, the TGI (TK-10 renal) was greater than 100 µM.
With `CN1C(=O)N(C)C2C1NN=c1s/c(=C\c3ccc(Cl)cc3Cl)c(=O)n12` (centres undefined) the GI50 (786-0 renal) was 0.703 µM, the TGI (786-0 renal) was greater than 48.8 µM and the GI50 (CAKI-1 renal) was 0.0608 µM. The TGI (CAKI-1 renal) was greater than 62.3 µM, the GI50 (DU-145 prostate) was 0.334 µM and the TGI (DU-145 prostate) was greater than 20.5 µM. The GI50 (HOP-62 NSCLC) was 0.116 µM, the TGI (HOP-62 NSCLC) was 30.2 µM and the GI50 (M14 melanoma) was 0.167 µM. For the same compound, the TGI (M14 melanoma) was greater than 37.9 µM, the GI50 (MDA-MB-435) was 0.0333 µM and the TGI (MDA-MB-435) was 2.11 µM. The GI50 (NCI-H522 lung) was 0.0958 µM, the TGI (NCI-H522 lung) was greater than 57.8 µM and the GI50 (OVCAR-3 ovarian) was 0.104 µM. For the same compound, the TGI (OVCAR-3 ovarian) was 11.2 µM, the GI50 (SK-MEL-5 melanoma) was 0.167 µM and the TGI (SK-MEL-5 melanoma) was 1.78 µM. It also gave a GI50 (TK-10 renal) of 10.2 µM and a TGI (TK-10 renal) greater than 92.4 µM.
In the case of `CS(=O)(=O)CCNCc1nc(-c2ccc3ncnc(Nc4ccc(OCc5cccc(C(F)(F)F)c5)cc4)c3c2)cs1`, the GI50 (786-0 renal) is reported as greater than 16.5 µM, the TGI (786-0 renal) is reported as greater than 25 µM and the GI50 (CAKI-1 renal) is reported as greater than 25 µM. For the same compound, the TGI (CAKI-1 renal) was greater than 25 µM, the GI50 (DU-145 prostate) was greater than 17.7 µM and the TGI (DU-145 prostate) was greater than 25 µM. It also gave a GI50 (HOP-62 NSCLC) of 5.5 µM, a TGI (HOP-62 NSCLC) of 12.9 µM and a GI50 (M14 melanoma) greater than 25 µM. The TGI (M14 melanoma) was greater than 25 µM, the GI50 (MDA-MB-435) was greater than 25 µM and the TGI (MDA-MB-435) was greater than 25 µM. For the same compound, the GI50 (NCI-H522 lung) was 9.13 µM, the TGI (NCI-H522 lung) was greater than 25 µM and the GI50 (OVCAR-3 ovarian) was greater than 17.3 µM. For the same compound, the TGI (OVCAR-3 ovarian) was greater than 25 µM, the GI50 (SK-MEL-5 melanoma) was greater than 21.6 µM and the TGI (SK-MEL-5 melanoma) was greater than 25 µM. It also gave a GI50 (TK-10 renal) of 1.67 µM and a TGI (TK-10 renal) greater than 25 µM.
`O=C(N[C@@H](c1ccc(Cl)c(Cl)c1)C1CNC1)c1ccc2cnccc2c1` was tested, and the GI50 (786-0 renal) was 0.0676 µM, the TGI (786-0 renal) was 2.34 µM and the GI50 (CAKI-1 renal) was 0.068 µM. It also gave a TGI (CAKI-1 renal) of 2.27 µM, a GI50 (DU-145 prostate) of 0.644 µM and a TGI (DU-145 prostate) of 13.2 µM. The GI50 (HOP-62 NSCLC) was 0.34 µM, the TGI (HOP-62 NSCLC) was 11.5 µM and the GI50 (M14 melanoma) was 0.343 µM. For the same compound, the TGI (M14 melanoma) was 8.4 µM, the GI50 (MDA-MB-435) was 0.216 µM and the TGI (MDA-MB-435) was 3.81 µM. It also gave a GI50 (NCI-H522 lung) of 0.721 µM, a TGI (NCI-H522 lung) of 9.2 µM and a GI50 (OVCAR-3 ovarian) of 1.56 µM. For the same compound, the TGI (OVCAR-3 ovarian) was 13.2 µM, the GI50 (SK-MEL-5 melanoma) was 2.85 µM and the TGI (SK-MEL-5 melanoma) was 12.1 µM. The GI50 (TK-10 renal) was 0.133 µM and the TGI (TK-10 renal) was 3.09 µM.
`NCCNc1c2c(c(NCCN)c3[nH]ccc13)C(=O)c1ccccc1C2=O` showed a GI50 (786-0 renal) of 0.224 µM, a TGI (786-0 renal) of 1.04 µM and a GI50 (CAKI-1 renal) of less than 0.042 µM. For the same compound, the TGI (CAKI-1 renal) was 0.777 µM, the GI50 (DU-145 prostate) was 0.694 µM and the TGI (DU-145 prostate) was 2.4 µM. It also gave a TGI (HOP-62 NSCLC) of 0.624 µM, a GI50 (M14 melanoma) of 1.45 µM and a TGI (M14 melanoma) of 2.76 µM. For the same compound, the GI50 (MDA-MB-435) was 0.225 µM, the TGI (MDA-MB-435) was 0.692 µM and the GI50 (NCI-H522 lung) was 1.9 µM. It also gave a TGI (NCI-H522 lung) greater than 100 µM, a GI50 (OVCAR-3 ovarian) of less than 0.0489 µM and a TGI (OVCAR-3 ovarian) of 0.251 µM. The GI50 (SK-MEL-5 melanoma) was 0.178 µM, the TGI (SK-MEL-5 melanoma) was 0.808 µM and the GI50 (TK-10 renal) was 0.145 µM. For the same compound, the TGI (TK-10 renal) was 0.682 µM.
